Results as given in patent US8741957B2, “Alpha-aminoamide derivatives useful in the treatment of cognitive disorders” (priority 2006, dated 2014).

Key:
[1] = tested on: early-mild Parkinson's Disease; conditions: after eight weeks (end of study); cited from earlier work
[2] = tested on: patients with PD-related Dementia (PDD); conditions: cited from earlier work
[3] = in vivo; cited from earlier work
mild PD patients = conditions: in comparison to levodopa; cited from earlier work
cholinesterase = conditions: cited from earlier work
MAO-B = target: T1, MAO-B (Homo sapiens, UniProt P27338); conditions: cited from earlier work
T1 sequence (P27338 1-520): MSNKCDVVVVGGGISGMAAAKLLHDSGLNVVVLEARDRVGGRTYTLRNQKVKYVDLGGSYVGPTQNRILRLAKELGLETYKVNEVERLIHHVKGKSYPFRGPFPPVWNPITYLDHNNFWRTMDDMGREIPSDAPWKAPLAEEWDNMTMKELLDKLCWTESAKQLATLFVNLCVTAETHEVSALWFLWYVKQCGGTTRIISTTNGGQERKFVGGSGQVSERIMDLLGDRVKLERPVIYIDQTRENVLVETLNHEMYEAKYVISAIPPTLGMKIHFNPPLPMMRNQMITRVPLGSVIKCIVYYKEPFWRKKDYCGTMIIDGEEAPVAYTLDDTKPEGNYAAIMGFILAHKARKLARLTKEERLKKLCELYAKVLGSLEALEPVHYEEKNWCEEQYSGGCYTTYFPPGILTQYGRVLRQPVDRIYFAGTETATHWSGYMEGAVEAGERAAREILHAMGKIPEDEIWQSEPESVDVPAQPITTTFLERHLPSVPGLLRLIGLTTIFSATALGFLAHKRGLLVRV

animal models = conditions: cited from earlier work
PD patients = conditions: after 3 month treatment; cited from earlier work
MAO-A = target: T2, MAO-A (Homo sapiens, UniProt P21397); conditions: cited from earlier work
T2 sequence (P21397 1-527): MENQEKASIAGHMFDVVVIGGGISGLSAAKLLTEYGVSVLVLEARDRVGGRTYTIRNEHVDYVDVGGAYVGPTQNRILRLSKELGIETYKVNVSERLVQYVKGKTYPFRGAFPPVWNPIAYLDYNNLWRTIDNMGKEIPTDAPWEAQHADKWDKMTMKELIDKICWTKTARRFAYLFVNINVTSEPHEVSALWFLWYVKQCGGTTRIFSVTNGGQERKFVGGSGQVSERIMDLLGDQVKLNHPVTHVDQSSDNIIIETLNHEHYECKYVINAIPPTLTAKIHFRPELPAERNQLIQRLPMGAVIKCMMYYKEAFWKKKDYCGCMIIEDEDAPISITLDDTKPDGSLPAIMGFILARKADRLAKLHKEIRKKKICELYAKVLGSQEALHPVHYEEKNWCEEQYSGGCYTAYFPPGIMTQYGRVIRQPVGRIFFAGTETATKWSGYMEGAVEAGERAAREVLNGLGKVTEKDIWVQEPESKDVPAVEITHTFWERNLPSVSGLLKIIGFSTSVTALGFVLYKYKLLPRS

[4] = tested on: non demented patients with early PD; assay: UPDRS motor scores in six month double blind clinical trial; type: in vivo, human; conditions: safinamide associated to a dopamine agonist, compared to the group treated with the DA alone
Method: A double blind Phase III study, placebo controlled, parallel-group, randomized, multinational was conducted comparing 2 oral doses of Safinamide versus placebo. The placebo group was constituted by patients treated with a stable dose of a dopamine agonist. The dopamine agonist could have been any of the ones used in clinical practice, according to clinical procedures in the different countries. 269 patients (˜90 per arm), were enrolled and treated for six months. Primary efficacy variable was UPDRS III. All the randomized patients were tested for cognitive impairment with Cogtest at Screening, Baseline, week 12 and week 24 (or early discontinuation).

[5] = tested on: non demented patients with early PD; assay: Cogtest cognitive battery in double blind Phase III study, safinamide added to a dopamine agonist; type: in vivo, human
Text: Cogtest® (Computerized Cognitive Test Battery for Clinical Trials) is designed to provide with the highest quality computerised cognitive tests for use in clinical trials. All cognitive tests in the Cogtest® battery have been developed by academic neuropsychologists and clinical trials specialists. This ensures that the most recent developments in cognitive neuroscience, including neurophysiological, functioning neuroimaging and pharmacogenic evidence are incorporated into the Cogtest® library of procedures and into pharmaceutical clinical trials.
The Cogtest PD battery has been prepared, based on a review of the available tests in the Cogtest library and selection of those tests that would most usefully comprise a battery suitable for Parkinson's Disease. However the same tasks are used in other pathological conditions for testing the two main domains of cognition, reaction time and power.
The battery takes from 20-30 minutes to administer, and is applicable across different cultures and countries. The following tests were included in the battery:
The Auditory Number Sequencing task is a test of working memory and executive function. The participant will be presented with clusters of numbers (e.g. 936) of increasing length (from 2 digits to a maximum of 8 digits). They will be asked to tell the tester the numbers in order, from lowest to highest. […]
This test is similar to the paper-and-pencil ‘cancellation’ tests or the cross-out’ subtest of the WAIS-III, where subjects are required to crossout target stimuli embedded among distracters. […] The variables measured are: Total Experiment Time (from the end of the ‘Get ready’ screen to the end of the last response, in msec), Total Correct responses, Total Perseverative Errors (erroneous pressing of the shape that was the target of the last set, but is not for this set), Strategic efficiency variable (the cumulative distance of territory transversed, i.e., between the location of correct presses on screen for each set) according to literature (Weintraub, S., & Mesulam, M. M. (1987). Archives of Neurology 44 621-625). […]

normal rats = conditions: safinamide per se; cited from earlier work
glutamate receptors = conditions: cited from earlier work
glutamate release = conditions: in condition of pathological glutamate overflow; cited from earlier work
[6] = tested on: early and moderate-to-advanced PD patients; conditions: 1 mg dose once daily; cited from earlier work
[7] = literature reports; cited from earlier work

CCCN1C[C@H](CSC)C[C@@H]2c3cccc4[nH]cc(c34)C[C@H]21 [pergolide]
cognitive test scores [1]: without showing amelioration

CCN(C)C(=O)Oc1cccc([C@H](C)N(C)C)c1 [rivastigmine]
subjective worsening of tremor reported ([2]; in vivo): 1.7%
patients dropped out due to adverse events ([2]; most commonly due to nausea): 17%
response on primary (ADAS-Cog, Clinical Global Impression of Change) and all secondary outcome measures ([2]; versus placebo, differences were moderate): responded better

CN1CCc2cccc3c2[C@H]1Cc1ccc(O)c(O)c1-3 [apomorphine]
reaction times in visual-spatial working memory (WM) [3]: negative effect

CCCN[C@H]1CCc2nc(N)sc2C1 [pramipexole]
short term verbal memory and attentional-executive functions (mild PD patients): impaired
verbal fluency (mild PD patients): slightly but significantly worsened

C[C@H](NCc1ccc(OCc2cccc(F)c2)cc1)C(N)=O [safinamide, (S)-(+)-2-[4-(3-fluorobenzyloxy)-benzylamino]-propanamide]
cholinesterase inhibition (cholinesterase): not cholinesterase inhibitors
MAO-B inhibition (MAO-B): selective MAO-B inhibitor
long term neuroprotective effects (animal models): demonstrated
UPDRS scores (PD patients): significantly ameliorated
activity on MAO-A (MAO-A): devoid of activity
UPDRS scores (motor symptoms) [4]: significantly ameliorate
several cognitive variables (Cogtest), change from baseline ([5]; both groups, low and high dose of safinamide, with a stable dose of a DA, three and six months evaluation times, most marked for executive function): significant improvement from baseline
Strategic Target Detection test, observed score (Z-score) ([5]; both treated groups (low and high dose of safinamide), from baseline to both three and six months): significant improvement
cognition compared with DA alone (control group) and with pretreatment ([5]; safinamide associated to a dopamine agonist, check at three and six months after start of treatment): ameliorate cognitive worsening observed in controls and/or improve cognition as compared to pretreatment
cognition in the rat passive avoidance test (normal rats): does not ameliorate cognition
affinity for any of the glutamate receptors (glutamate receptors): no affinity
glutamate release inhibition (glutamate release): glutamate release inhibitor

C#CCN[C@@H]1CCc2ccccc21 [rasagiline]
occurrence of cognitive and behavioural adverse events [6]: without significantly increasing
symptoms of PD, including motor fluctuations [6]: improved

N[C@@H](Cc1ccc(O)c(O)c1)C(=O)O [levodopa]
effect on cognition [7]: no effect on cognition, or even impairment
